The values below come from ChEMBL document CHEMBL4507279, “Data for DCP probe BI-9627” (2021).

Data set [1] addresses MAP/microtubule affinity-regulating kinase 3 (Homo sapiens) (UniProt P27448). The settings on record: Compound concentration 1000.0 nM.
Data set [2] concerns the target D(2) dopamine receptor (Homo sapiens) (UniProt P14416). The settings on record: Compound concentration 10.0 uM.
Data set [3] has as its target Sigma non-opioid intracellular receptor 1 (Homo sapiens) (UniProt Q99720). The settings on record: Compound concentration 10.0 uM.
Data set [4] relates to Proto-oncogene tyrosine-protein kinase receptor Ret (Homo sapiens), P07949 [M918T]. The settings on record: Compound concentration 1000.0 nM.
The target of data set [5] is Sodium/hydrogen exchanger 1 (Homo sapiens, UniProt P19634). As to the kind of experiment: pHi change assay with SLC9A1.
Data set [6] concerns the target Histamine H2 receptor (Homo sapiens) (UniProt P25021). The settings on record: Compound concentration 10.0 uM.
Data set [7] deals with D(2) dopamine receptor (Homo sapiens) (UniProt P14416). As to the kind of experiment: D2S/HU Eurofins-Panlabs selectivity data (BI). The settings on record: Compound concentration 10.0 uM.
Data set [8] deals with P2X purinoceptor (Oryctolagus cuniculus) (UniProt G1U3D6). As to the kind of experiment: P2X/RB Eurofins-Panlabs selectivity data (BI). The settings on record: Compound concentration 10.0 uM.
Data set [9] addresses Sodium-dependent noradrenaline transporter (Homo sapiens) (UniProt P23975). Nature of the data set: NETRANS/H Eurofins-Panlabs selectivity data (BI). The settings on record: Compound concentration 10.0 uM.
Data set [10] deals with 5-hydroxytryptamine receptor 1A (Homo sapiens) (UniProt P08908). The settings on record: Compound concentration 10.0 uM.
For data set [11], the target named is Histamine H1 receptor (Homo sapiens) (UniProt P35367). Nature of the data set: H1/H Eurofins-Panlabs selectivity data (BI). The settings on record: Compound concentration 10.0 uM.
The target in data set [12] is Melatonin receptor type 1A (Homo sapiens) (UniProt P48039). The settings on record: Compound concentration 10.0 uM.
In data set [13] the target is T1, Muscarinic acetylcholine receptor M2 (Homo sapiens) (UniProt P08172).
T1 sequence (whole entry): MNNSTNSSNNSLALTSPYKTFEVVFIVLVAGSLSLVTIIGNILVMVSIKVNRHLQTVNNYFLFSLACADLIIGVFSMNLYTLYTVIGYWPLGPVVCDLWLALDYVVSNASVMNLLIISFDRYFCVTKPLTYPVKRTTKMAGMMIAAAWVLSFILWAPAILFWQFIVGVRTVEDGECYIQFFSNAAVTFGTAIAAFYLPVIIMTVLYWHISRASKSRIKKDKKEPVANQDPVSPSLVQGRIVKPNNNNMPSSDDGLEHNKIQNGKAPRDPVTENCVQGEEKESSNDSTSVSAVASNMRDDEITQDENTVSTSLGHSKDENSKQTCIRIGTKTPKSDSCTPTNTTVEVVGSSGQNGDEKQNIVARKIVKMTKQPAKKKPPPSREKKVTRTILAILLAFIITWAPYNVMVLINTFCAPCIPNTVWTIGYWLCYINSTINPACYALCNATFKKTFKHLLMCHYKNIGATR
Nature of the data set: M2/HU Eurofins-Panlabs selectivity data (BI).

Data set [14] can be described thus: Rat platelet swelling inhibition (rPSA) assay.
Data set [15] addresses Histamine H2 receptor (Homo sapiens) (UniProt P25021). Nature of the data set: H2/H Eurofins-Panlabs selectivity data (BI). The settings on record: Compound concentration 10.0 uM.
In data set [16] the target is Neuropeptide Y receptor type 2 (Homo sapiens) (UniProt P49146). As to the kind of experiment: Y2/HU Eurofins-Panlabs selectivity data (BI). The settings on record: Compound concentration 10.0 uM.
The target of data set [17] is Adenosine receptor A2a (Homo sapiens) (UniProt P29274). Nature of the data set: A2A/HU Eurofins-Panlabs selectivity data (BI). The settings on record: Compound concentration 10.0 uM.
For data set [18], the target named is Gamma-aminobutyric acid receptor subunit alpha-1 (Rattus norvegicus) (UniProt P62813). As to the kind of experiment: GABAACENTR Eurofins-Panlabs selectivity data (BI). The settings on record: Compound concentration 10.0 uM.
Data set [19] has as its target Glutamate NMDA receptor (Rattus norvegicus) (UniProt P35439+Q00959+Q00960+Q00961+Q62645+Q8VHN2+Q9R1M7). Nature of the data set: NMDAAGSI/RA Eurofins-Panlabs selectivity data (BI). Format: protein-complex assay. The settings on record: filed as agonist, Compound concentration 10.0 uM.
Data set [20] is described as follows: Human platelet swelling inhibition (hPSA) assay.
Data set [21] concerns the target Voltage-dependent L-type calcium channel subunit alpha-1C (diltiazem site) (Rattus norvegicus, UniProt P22002). Nature of the data set: CA+/DILSI/RA Eurofins-Panlabs selectivity data (BI). The settings on record: compound concentration 10 uM, read-out: % Ctrl.
Data set [22] deals with Pyroglutamylated RF-amide peptide receptor (Homo sapiens) (UniProt Q96P65). Nature of the data set: GPR103 Eurofins-Panlabs selectivity data (BI). The settings on record: Compound concentration 10.0 uM.
For data set [23], the target named is Kappa-type opioid receptor (Homo sapiens) (UniProt P41145). The settings on record: Compound concentration 10.0 uM.
Data set [24] concerns the target Neuropeptide Y receptor type 1 (Homo sapiens) (UniProt P25929). As to the kind of experiment: Y1/HU Eurofins-Panlabs selectivity data (BI). The settings on record: Compound concentration 10.0 uM.
The target of data set [25] is Thyroid hormone receptor alpha (Rattus norvegicus) (UniProt P63059). As to the kind of experiment: THYROID HORM Eurofins-Panlabs selectivity data (BI). The settings on record: Compound concentration 10.0 uM.
In data set [26] the target is T2, Alpha-2A adrenergic receptor (Homo sapiens) (UniProt P08913).
T2 sequence (whole entry): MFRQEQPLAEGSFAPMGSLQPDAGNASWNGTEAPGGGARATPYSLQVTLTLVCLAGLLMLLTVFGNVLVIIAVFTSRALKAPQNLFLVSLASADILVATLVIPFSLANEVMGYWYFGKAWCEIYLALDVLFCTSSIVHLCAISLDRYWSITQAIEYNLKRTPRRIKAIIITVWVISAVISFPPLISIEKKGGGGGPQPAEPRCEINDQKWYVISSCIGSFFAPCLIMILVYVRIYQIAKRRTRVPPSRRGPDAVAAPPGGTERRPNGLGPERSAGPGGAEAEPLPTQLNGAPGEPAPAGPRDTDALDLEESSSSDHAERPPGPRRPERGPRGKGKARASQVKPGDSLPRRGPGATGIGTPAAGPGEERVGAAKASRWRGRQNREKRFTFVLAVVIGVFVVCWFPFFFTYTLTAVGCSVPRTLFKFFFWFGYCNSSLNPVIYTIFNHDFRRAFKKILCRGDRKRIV
As to the kind of experiment: ALPHA2A/H Eurofins-Panlabs selectivity data (BI). The settings on record: Compound concentration 10.0 uM.

The target in data set [27] is Androgen receptor (Rattus norvegicus) (UniProt P15207). As to the kind of experiment: TESTOST/RA Eurofins-Panlabs selectivity data (BI). The settings on record: Compound concentration 10.0 uM.
Data set [28] concerns the target Voltage-dependent L-type calcium channel subunit alpha-1C (DHP site) (Rattus norvegicus, UniProt P22002). Nature of the data set: CA+/DHPSI/RA Eurofins-Panlabs selectivity data (BI). The settings on record: compound concentration 10 uM, read-out: % Ctrl.
Data set [29] deals with Endothelin-1 receptor (Homo sapiens) (UniProt P25101). Nature of the data set: ETA/HU Eurofins-Panlabs selectivity data (BI). The settings on record: Compound concentration 10.0 uM.
The target in data set [30] is 5-hydroxytryptamine receptor 1A (Homo sapiens) (UniProt P08908). As to the kind of experiment: 5HT1A/HU Eurofins-Panlabs selectivity data (BI). The settings on record: Compound concentration 10.0 uM.
Data set [31] concerns the target 5-hydroxytryptamine receptor 1E (Homo sapiens) (UniProt P28566). The settings on record: Compound concentration 10.0 uM.

The source made the active and inactive calls. The rule behind the calls is not given here.

Histamine H2 receptor (Homo sapiens), sequence (P25021 whole entry): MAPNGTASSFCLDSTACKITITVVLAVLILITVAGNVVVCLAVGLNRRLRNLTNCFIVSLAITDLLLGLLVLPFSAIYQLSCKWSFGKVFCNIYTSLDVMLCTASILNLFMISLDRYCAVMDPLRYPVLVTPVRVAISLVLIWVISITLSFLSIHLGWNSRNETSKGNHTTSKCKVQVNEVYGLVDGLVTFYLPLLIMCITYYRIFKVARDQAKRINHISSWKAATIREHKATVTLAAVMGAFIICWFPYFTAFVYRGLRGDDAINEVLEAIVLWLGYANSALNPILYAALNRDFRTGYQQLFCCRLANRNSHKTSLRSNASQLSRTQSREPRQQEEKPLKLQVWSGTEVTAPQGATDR
D(2) dopamine receptor (Homo sapiens), sequence (P14416 whole entry): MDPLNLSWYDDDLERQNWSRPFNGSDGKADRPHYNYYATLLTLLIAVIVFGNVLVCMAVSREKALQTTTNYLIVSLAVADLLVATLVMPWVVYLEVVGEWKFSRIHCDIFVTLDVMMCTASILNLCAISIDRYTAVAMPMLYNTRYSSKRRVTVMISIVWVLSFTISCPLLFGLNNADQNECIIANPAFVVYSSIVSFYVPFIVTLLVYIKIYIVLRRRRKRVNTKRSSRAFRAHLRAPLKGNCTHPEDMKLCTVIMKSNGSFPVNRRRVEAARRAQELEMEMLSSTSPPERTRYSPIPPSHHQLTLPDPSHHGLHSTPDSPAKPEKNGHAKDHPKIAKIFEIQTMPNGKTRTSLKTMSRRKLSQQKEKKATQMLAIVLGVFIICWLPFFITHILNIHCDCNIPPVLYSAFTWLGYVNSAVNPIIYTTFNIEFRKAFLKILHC
5-hydroxytryptamine receptor 1A (Homo sapiens), sequence (P08908 whole entry): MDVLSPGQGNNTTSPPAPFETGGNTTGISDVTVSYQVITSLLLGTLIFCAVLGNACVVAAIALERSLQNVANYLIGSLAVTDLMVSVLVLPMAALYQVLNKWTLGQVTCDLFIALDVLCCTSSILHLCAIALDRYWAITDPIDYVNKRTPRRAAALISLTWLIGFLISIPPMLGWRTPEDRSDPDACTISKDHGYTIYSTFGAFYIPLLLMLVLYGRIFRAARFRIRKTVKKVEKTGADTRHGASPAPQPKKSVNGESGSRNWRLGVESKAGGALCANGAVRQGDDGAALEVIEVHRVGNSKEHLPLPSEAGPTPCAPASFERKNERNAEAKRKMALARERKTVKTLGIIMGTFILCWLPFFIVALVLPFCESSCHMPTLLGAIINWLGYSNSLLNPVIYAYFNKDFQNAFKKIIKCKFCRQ
Kappa-type opioid receptor (Homo sapiens), sequence (P41145 whole entry): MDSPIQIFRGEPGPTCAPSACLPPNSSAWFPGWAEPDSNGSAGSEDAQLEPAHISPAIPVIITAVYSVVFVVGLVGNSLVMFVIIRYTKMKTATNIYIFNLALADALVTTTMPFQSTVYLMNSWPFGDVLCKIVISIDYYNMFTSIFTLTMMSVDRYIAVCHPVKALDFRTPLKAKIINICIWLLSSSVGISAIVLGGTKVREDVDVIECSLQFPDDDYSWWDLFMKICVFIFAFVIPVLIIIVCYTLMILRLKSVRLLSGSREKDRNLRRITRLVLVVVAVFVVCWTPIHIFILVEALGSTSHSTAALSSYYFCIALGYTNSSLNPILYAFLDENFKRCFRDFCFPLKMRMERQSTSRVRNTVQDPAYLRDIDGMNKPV
Endothelin-1 receptor (Homo sapiens), sequence (P25101 whole entry): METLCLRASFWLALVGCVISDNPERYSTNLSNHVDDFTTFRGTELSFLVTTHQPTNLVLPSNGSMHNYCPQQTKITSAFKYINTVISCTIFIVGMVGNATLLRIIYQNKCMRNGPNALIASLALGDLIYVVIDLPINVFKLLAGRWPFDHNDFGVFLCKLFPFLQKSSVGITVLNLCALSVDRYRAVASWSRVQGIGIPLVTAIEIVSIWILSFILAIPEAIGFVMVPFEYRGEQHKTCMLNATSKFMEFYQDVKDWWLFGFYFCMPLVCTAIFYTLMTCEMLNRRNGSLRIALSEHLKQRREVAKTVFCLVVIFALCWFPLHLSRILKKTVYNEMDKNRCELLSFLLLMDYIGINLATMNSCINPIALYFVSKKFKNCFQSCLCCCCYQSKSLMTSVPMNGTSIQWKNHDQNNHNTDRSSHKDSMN
Gamma-aminobutyric acid receptor subunit alpha-1 (Rattus norvegicus), sequence (P62813 whole entry): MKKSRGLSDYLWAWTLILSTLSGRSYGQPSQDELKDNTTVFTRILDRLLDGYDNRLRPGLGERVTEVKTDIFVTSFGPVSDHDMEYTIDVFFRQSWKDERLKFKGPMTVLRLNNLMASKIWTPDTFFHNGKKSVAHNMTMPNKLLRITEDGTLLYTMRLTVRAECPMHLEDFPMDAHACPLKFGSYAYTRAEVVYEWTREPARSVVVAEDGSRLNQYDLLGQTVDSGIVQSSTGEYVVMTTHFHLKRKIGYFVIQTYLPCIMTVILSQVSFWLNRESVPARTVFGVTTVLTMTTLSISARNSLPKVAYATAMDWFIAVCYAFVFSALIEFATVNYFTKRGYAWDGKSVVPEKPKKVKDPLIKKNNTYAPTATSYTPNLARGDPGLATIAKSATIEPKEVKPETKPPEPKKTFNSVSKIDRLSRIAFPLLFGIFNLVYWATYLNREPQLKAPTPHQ
Sodium/hydrogen exchanger 1, sequence (P19634 whole entry): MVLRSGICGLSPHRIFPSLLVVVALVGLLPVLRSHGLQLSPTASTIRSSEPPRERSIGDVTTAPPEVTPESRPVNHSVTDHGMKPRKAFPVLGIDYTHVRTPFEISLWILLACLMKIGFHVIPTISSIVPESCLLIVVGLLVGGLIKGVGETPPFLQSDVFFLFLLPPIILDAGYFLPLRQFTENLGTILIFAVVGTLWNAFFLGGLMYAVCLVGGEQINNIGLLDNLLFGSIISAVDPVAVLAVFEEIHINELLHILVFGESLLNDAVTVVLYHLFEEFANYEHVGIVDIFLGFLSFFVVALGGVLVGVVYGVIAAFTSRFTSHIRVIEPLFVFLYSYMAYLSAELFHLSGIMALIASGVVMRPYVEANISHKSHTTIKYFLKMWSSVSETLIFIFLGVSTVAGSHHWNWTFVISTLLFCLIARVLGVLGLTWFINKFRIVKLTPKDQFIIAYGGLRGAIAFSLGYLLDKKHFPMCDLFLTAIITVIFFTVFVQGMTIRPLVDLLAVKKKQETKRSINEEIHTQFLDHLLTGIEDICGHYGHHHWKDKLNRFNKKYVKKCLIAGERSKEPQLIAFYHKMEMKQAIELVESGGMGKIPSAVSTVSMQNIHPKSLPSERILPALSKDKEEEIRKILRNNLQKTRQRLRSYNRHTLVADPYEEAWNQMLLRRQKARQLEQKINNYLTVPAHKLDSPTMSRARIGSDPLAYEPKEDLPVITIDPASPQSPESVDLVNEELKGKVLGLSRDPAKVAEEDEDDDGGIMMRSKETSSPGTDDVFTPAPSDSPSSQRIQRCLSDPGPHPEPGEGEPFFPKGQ
Neuropeptide Y receptor type 2 (Homo sapiens), sequence (P49146 whole entry): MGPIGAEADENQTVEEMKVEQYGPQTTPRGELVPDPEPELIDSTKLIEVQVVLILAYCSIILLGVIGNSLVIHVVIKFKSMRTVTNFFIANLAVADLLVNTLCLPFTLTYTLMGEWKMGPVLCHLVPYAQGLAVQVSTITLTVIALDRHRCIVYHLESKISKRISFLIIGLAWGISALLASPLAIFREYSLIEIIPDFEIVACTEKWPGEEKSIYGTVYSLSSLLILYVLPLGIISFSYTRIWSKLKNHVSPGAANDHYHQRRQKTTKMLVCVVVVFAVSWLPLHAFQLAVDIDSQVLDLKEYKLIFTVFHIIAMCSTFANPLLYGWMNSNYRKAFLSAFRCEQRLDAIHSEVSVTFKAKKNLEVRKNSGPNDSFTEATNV
P2X purinoceptor (Oryctolagus cuniculus), sequence (G1U3D6 as listed by the source): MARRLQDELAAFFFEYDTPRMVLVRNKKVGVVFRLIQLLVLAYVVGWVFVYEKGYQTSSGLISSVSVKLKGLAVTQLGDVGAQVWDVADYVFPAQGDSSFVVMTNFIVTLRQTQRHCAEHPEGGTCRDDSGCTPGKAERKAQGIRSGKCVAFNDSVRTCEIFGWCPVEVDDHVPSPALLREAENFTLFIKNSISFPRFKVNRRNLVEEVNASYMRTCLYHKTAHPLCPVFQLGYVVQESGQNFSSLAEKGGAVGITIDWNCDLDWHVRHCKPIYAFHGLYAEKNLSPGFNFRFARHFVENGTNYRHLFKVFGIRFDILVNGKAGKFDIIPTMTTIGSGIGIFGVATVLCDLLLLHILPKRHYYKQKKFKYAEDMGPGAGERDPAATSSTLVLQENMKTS
MAP/microtubule affinity-regulating kinase 3 (Homo sapiens), sequence (P27448 whole entry, looked up): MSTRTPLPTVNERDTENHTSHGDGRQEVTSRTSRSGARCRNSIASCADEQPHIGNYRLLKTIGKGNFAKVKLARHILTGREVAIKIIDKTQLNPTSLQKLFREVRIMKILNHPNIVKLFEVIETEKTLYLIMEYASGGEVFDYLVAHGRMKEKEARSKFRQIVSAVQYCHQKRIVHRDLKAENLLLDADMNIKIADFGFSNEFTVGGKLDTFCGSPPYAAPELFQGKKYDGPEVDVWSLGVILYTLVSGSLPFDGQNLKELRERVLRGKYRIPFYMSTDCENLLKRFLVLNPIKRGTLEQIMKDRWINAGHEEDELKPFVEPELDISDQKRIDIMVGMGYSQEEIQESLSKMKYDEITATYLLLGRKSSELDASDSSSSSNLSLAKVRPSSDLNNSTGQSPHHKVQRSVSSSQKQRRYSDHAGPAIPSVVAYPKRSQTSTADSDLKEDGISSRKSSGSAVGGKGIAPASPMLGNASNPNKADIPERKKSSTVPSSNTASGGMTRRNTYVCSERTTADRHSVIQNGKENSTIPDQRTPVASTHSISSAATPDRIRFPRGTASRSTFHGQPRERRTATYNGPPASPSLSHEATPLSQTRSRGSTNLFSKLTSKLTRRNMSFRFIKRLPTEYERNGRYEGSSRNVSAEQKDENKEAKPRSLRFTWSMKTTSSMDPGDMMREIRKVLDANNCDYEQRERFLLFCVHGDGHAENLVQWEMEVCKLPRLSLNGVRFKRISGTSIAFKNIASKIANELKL

For `CC(=O)N1CCC(c2ccc(C(=O)NC3=NCCN3)cc2C(F)(F)F)CC1` [BI 0054], the residual activity was 100% in data set [1] and 90% in data set [4]. Further, the results for the inhibition in data set [2], in data set [3] and in [6] were -4.57%, -8.45% and -9.37%, respectively. For the same compound, the IC50 (in general, the concentration that gives 50% inhibition) in [5] is listed as > 10 µM (not active).
As to `CC(=O)N1CCC(c2ccc(C(=O)NC(=N)N)cc2C(F)(F)F)CC1` [BI 9627], the residual activity in data set [7] was 110%; in data set [8] it was 98%; in data set [9] it was 91%; in data set [11] it was 98%; in data set [12], 96%; in data set [13] (Compound concentration 0.03 uM), 102%. Further, the residual activity in [13] (Compound concentration 0.1 uM) is 108%; in [13] (Compound concentration 0.3 uM) it was 71%; in data set [13] (Compound concentration 1.0 uM) it was 70%; in data set [13] (Compound concentration 3.0 uM) it was 48%; in [13] (Compound concentration 10.0 uM), 33%; in data set [13] (Compound concentration 30.0 uM) it was 11%. Also, the residual activity was 103% in data set [15]; 103% in data set [16]; 86% in data set [17]; 92% in data set [18]; 90% in [19]; 92% in [22]. Also, the residual activity is 94% in data set [24]; 93% in [25]; 93% in data set [26]; 95% in data set [27]; 103% in [29]; 82% in [30]. Also, the inhibition (usually the relative decrease from the control value, in per cent) in data set [10] was -5.21%; in data set [23], 9.26%; in data set [31], -9.59%. Besides, the IC50 in data set [14] is 0.138 µM (active); in data set [20] it was 0.031 µM (active). The activity at 10 µM in [21] is given as 68% (not active); in data set [28], 77% (not active).
